For two compounds, Ratio and Kd results are on record in ChEMBL document CHEMBL1134253, “HIV Rev peptides conjugated with peptide nucleic acids and their efficient binding to RRE RNA” (Bioorg Med Chem Lett, 2001).

In assay [1] the test system is Rev responsive element (RRE) RNA. In words: Ratio of the dissociation constant between Rev37-50 and the PNA-peptide. It counts as nucleic-acid assay.
Assay [2] addresses Rev responsive element (RRE) RNA. In words: Dissociation constant of compound with Rev-responsive element (RRE) IIB RNA was determined by the competition assay. It counts as nucleic-acid assay.

The term Kd denotes a measure of binding affinity in units of concentration. A low value points to a tighter complex. Consider `Cc1cn(CC(=O)N(CCNC(=O)CCC(=O)O)CC(=O)N[C@@H](C)C(=O)N[C@@H](CCCNC(=N)N)C(=O)N[C@@H](CCCNC(=N)N)C(=O)N[C@@H](CC(N)=O)C(=O)N[C@@H](CCCNC(=N)N)C(=O)N[C@@H](CCCNC(=N)N)C(=O)N[C@@H](CCCNC(=N)N)C(=O)N[C@@H](CCCNC(=N)N)C(=O)N[C@@H](Cc2c[nH]c3ccccc23)C(=O)N[C@@H](CCCNC(=N)N)C(=O)N[C@@H](CCC(=O)O)C(=O)N[C@@H](CCCNC(=N)N)C(=O)N[C@@H](CCC(N)=O)C(=O)N[C@H](CCCNC(=N)N)C(N)=O)c(=O)[nH]c1=O`, for which the Ratio in assay [1] is 2.2. In assay [2], the Kd came to 39 nM.

Take `C[C@H](NC(=O)CN(CCNC(=O)CN(CCNC(=O)CN(CCNC(=O)CCC(=O)O)C(=O)Cn1ccc(N)nc1=O)C(=O)Cn1cnc2c(=O)[nH]c(N)nc21)C(=O)Cn1ccc(N)nc1=O)C(=O)N[C@@H](CCCNC(=N)N)C(=O)N[C@@H](CCCNC(=N)N)C(=O)N[C@@H](CC(N)=O)C(=O)N[C@@H](CCCNC(=N)N)C(=O)N[C@@H](CCCNC(=N)N)C(=O)N[C@@H](CCCNC(=N)N)C(=O)N[C@@H](CCCNC(=N)N)C(=O)N[C@@H](Cc1c[nH]c2ccccc12)C(=O)N[C@@H](CCCNC(=N)N)C(=O)N[C@@H](CCC(=O)O)C(=O)N[C@@H](CCCNC(=N)N)C(=O)N[C@@H](CCC(N)=O)C(=O)N[C@H](CCCNC(=N)N)C(N)=O`: in assay [1], the Ratio stood at 9. In assay [2], this compound displayed a dissociation constant (Kd) of 9.6 nM.
